Data: article PMC5452050 (ACS Omega, 2017)

Assays:
[1] = biological target: RET (V804M) (Homo sapiens, UniProt P07949, V804M); assay: Kd determination; format: binding
[2] = biological target: BLK (Homo sapiens, UniProt P51451); assay: Kd determination; format: binding
[3] = biological target: MERTK (Homo sapiens, UniProt Q12866); assay: Kd determination; format: binding
[4] = tested on: FLT3-ITD phosphorylation; assay: Western blot of FLT3 signaling in MOLM13^FLT3-ITD cells; format: cell-based; details: 1 h, read-out: FLT3 IC50 estimated from loss of FLT3-ITD phosphorylation
[5] = biological target: JAK2 (JH1 domain-catalytic) (Homo sapiens, UniProt O60674); assay: Kd determination; format: binding
JAK2 (JH1 domain-catalytic), sequence (O60674 849-1124 limits assumed): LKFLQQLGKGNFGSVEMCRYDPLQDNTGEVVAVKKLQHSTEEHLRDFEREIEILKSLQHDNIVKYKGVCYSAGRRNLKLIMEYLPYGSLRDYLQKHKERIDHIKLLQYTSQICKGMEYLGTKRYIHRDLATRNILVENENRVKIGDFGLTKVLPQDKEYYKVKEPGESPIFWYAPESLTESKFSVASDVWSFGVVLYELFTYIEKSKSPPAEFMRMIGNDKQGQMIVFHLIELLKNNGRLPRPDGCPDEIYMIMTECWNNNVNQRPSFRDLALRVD

[6] = Simulated gastric fluid; format: physicochemical
[7] = tested on: MV4-11 cells; assay: MV4-11 cell proliferation; format: cell-based
[8] = PBS stability; format: physicochemical

BLK, sequence (P51451 whole entry): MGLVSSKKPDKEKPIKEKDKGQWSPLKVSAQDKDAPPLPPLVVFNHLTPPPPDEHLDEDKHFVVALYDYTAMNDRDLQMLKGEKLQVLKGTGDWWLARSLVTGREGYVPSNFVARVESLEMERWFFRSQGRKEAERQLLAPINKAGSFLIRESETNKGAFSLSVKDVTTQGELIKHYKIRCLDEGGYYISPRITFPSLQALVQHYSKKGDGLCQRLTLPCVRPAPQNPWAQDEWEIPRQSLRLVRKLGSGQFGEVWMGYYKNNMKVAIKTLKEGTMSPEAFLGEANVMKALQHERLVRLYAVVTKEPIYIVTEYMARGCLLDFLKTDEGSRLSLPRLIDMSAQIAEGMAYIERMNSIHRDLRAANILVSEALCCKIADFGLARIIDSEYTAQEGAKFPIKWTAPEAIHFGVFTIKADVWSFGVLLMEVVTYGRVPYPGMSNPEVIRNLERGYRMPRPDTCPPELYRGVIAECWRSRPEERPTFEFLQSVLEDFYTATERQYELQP
RET (V804M), sequence (P07949 29-1114 V804M): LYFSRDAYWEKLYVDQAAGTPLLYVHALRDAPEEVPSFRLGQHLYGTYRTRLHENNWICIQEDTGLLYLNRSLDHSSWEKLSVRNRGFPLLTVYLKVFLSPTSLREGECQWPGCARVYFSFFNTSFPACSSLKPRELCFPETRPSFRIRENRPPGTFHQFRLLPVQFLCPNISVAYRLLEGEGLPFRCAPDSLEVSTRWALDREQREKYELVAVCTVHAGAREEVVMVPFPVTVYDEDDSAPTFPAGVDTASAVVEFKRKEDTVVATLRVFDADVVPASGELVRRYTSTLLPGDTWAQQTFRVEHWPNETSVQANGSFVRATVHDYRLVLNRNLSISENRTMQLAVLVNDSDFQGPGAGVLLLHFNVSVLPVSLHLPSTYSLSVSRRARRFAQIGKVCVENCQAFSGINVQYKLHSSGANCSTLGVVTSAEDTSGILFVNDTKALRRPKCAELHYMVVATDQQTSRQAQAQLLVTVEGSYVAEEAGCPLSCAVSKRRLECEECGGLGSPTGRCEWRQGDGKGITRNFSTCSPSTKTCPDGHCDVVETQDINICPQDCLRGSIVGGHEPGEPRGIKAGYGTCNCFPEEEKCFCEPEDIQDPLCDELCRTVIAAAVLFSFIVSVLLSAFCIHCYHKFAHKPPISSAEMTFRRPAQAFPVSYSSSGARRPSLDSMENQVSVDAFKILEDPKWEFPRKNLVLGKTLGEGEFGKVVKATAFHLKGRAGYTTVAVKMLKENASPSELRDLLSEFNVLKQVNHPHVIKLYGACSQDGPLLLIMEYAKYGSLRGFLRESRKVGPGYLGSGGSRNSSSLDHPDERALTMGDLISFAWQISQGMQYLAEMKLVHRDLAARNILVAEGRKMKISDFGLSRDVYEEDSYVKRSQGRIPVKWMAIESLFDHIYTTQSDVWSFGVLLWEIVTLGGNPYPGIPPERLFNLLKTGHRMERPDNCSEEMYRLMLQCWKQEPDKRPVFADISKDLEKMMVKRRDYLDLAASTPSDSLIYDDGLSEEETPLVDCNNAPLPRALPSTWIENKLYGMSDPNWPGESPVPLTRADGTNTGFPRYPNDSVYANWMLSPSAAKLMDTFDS
MERTK, sequence (Q12866 21-999): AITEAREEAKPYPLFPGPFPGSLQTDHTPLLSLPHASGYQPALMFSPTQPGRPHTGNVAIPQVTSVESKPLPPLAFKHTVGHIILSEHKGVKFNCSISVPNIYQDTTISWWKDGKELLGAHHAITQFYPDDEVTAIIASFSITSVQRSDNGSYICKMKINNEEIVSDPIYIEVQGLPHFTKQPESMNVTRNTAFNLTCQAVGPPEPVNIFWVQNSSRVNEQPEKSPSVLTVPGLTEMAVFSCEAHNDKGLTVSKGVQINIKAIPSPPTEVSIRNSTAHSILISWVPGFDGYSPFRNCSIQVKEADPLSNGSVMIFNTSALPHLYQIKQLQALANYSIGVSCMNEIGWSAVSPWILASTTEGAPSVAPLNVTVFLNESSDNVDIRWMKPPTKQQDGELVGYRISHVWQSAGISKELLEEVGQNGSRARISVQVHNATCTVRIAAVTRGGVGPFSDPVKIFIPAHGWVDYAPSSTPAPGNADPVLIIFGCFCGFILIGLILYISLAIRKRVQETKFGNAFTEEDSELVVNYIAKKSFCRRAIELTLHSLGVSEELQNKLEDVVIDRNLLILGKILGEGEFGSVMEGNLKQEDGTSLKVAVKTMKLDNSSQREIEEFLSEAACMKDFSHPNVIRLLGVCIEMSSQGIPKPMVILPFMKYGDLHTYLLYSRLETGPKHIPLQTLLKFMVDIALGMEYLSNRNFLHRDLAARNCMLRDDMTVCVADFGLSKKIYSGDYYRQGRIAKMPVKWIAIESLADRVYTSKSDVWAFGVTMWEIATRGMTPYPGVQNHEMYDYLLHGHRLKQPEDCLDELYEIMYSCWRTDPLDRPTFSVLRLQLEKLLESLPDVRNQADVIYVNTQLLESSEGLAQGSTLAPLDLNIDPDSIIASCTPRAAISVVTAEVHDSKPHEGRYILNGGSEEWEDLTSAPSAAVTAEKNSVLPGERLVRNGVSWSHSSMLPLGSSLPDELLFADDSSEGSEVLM

c1cncc(-c2cccc(Nc3nccc(NC4CCCCC4)n3)c2)c1 [Compound 1, N^4-Cyclohexyl-N^2-(3-(pyridin-3-yl)phenyl)pyrimidine-2,4-diamine]
Kd [1]: 1400 nM
Kd [2]: 3900 nM
Kd [3]: 2800 nM

CC(C)Nc1ccnc(Nc2cccc(-c3cccnc3)c2)n1 [Compound 5e, N^4-Isopropyl-N^2-(3-(pyridin-3-yl)phenyl)pyrimidine-2,4-diamine]
IC50 [4]: 50 to 100 nM
Kd [5]: 480 nM
SGF stability [6]: >48 h
fold improvement in MV4-11 growth inhibition relative to 1 [7]: approximately 10 fold
PBS stability ([8]; pH = 3.0): >48 h
PBS stability ([8]; pH = 5.0): >48 h
PBS stability ([8]; pH = 7.4): >48 h
